Data as given in patent US20240109896A1, “FGFR KINASE INHIBITOR AND USE THEREOF” (YA THERAPEUTICS INC, priority 2021, published 2024).
Where two headings read alike, the source gives them in different places.

Experiments:
[1] = system: human gastric cancer cells (SNU-16); assay: Proliferation inhibition of human gastric cancer cells SNU-16 (CellTiter-Glo); assay type: cell-based; conditions: 72 h, SNU-16, 3 days
Method: (§1) Using the CellTiter-Glo<TM>Live Cell Assay Kit, The inhibitory effect of the test compound on the proliferation of human gastric cancer cells (SNU-16) and FGFR3 high expression and FGFR3 fusion of FGFR3-TACC3 fused human bladder cancer cells (RT4) was determined. Among them, RT4 medium is added with fetal bovine serum and McCoy's 5A medium with a final concentration of 10%.
(§2) Test steps: SNU-16 and RT4 cells that have reached 80% cell confluency were digested by trypsin, centrifuged and re-suspended for counting, and 3500 and 6000 cells/mL of SNU-16 and RT4 cell suspensions were prepared with medium, respectively. Add a 96-well cell culture plate (90 μL/well) and place in a cell culture incubator containing 5% CO2 at 37° C. […] The diluted compound stock solution was further diluted with SNU-16 and RT4 medium and the diluted mixture was transferred to the corresponding cell plates, respectively. […] Mix and centrifuge and then place in a cell culture incubator containing 5% CO2 for 3 days at 37° C. Take out the 96-well cell culture plate and add CellTiterGlo (CTG, Chemiluminescent Cell Viability Assay) reagent (100 L/well. Mix and centrifuge, and then incubate for 10 min at room temperature. After gentle shaking, the absorbance at 450 nm wavelength was determined on the SpectraMax M5 Reader, and the absorbance at 650 nm was used as a reference (i.e., 450 nm absorbance −650 nm absorbance) to calculate the suppression.

[2] = system: human bladder cancer cells (RT4); assay: Proliferation inhibition of human bladder cancer cells RT4 (CellTiter-Glo); assay type: cell-based; conditions: RT4, 3 days
Method: as §1, §2

[3] = system: Hep3B cells; assay: Human hepatoma cell Hep3B survival test (CellTiter-Glo); assay type: cell-based; conditions: treated 72 hours, read-out: inhibitory activity on Hep3B cell proliferation IC50
Method: The Hep3B cell line of human liver cancer is derived from ATCC. Cells are supplemented with McCoy's 5A medium and additionally added fetal bovine serum (IOFBS). Cells are kept in the medium at 37° C., humidity at 95%, and carbon dioxide at 500. Hep3B cells were seeded in 96-well plates at a density of 3500 cells per well with a cell suspension volume of 90 μL per well and cultured at 37° C. in a cell culture incubator containing 500 CO2. […] The cells were then placed in a 37° C. incubator and treated with compounds for 72 hours.

[4] = molecular target: FGFR2 (Homo sapiens, UniProt P21802); assay: In vitro activity inhibition test for kinase FGFR2; assay type: biochemical; conditions: kinase assay, 25° C.; read-out: Inhibition of separase IC50 (nM) FGFR2
[5] = molecular target: FGFR4 (Homo sapiens, UniProt P22455); assay: In vitro activity inhibition test for kinase FGFR4;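 further: caliper mobility shift assay of FGFR4 kinase activity, compounds tested as 10-point 4-fold dilution series with 0.5% DMSO final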
Method: (§3) In Vitro Activity Inhibition Test for Kinases FGFR1, FGFR2, FGFR3 and FGFR4
(§4) The activity of FGFR1, FGFR2, FGFR3 and FGFR4 protein kinases was determined by Caliper mobility shift assay. Perform a 4-fold gradient dilution from a working concentration of 0.2 mM in DMSO, diluting 10 concentrations. Add 2 μL of compound to 78 μL of 1× compound buffer. There were 10 points each for the negative control and the positive control. Shake the board on the rocker for 20 min. […] The final concentration of DMSO was 0.5%.

[6] = molecular target: FGFR3 (Homo sapiens, UniProt P22607); assay: In vitro activity inhibition test for kinase FGFR3;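 further: FGFR3 kinase activity read by Caliper mobility shift assay, compounds run as 10-point 4-fold dilution series, final DMSO 0.5%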
Method: as §3, §4

[7] = molecular target: FGFR1 (Homo sapiens, UniProt P11362); assay: In vitro activity inhibition test for kinase FGFR1
Method: as §3, §4

[8] = molecular target: T1, hERG potassium channel (Homo sapiens, UniProt Q12809); assay: Determination of potassium channel blockade of hERG (whole-cell patch clamp, Qpatch); assay type: cell-based; conditions: HEK293 cells stably expressing hERG, tail current, 24° C.
T1 construct: host or cells: HEK293
Method: Example 59: Determination of Potassium Channel Blockade of hERG
The experimental methods are in follows:
extracellular fluid: 140 mM NaCl, 3.5 mM KCl, 1 mM MgCl2, 2 mM CaCl2, 10 mM D-glucose, 10 mM HEPES, 1.25 mM NaH2PO4, pH=7.40
ISE Internal Solution: 20 mM KCl, 115 mM K-aspartate, 1 mM MgCl2, 5 mM EGTA, 10 mM HEPES, 2 mM Na2-ATP, pH=7.2
Cell culture: HEK293 cell line with stable expression of hERG potassium channel was used, and hERG potassium channel cells were purchased from Creacell (catalog number: A-0320). It was cultured in DMEM medium containing 10 fetal bovine serum and 0.8 mg/mL G418 at 37° C. and a carbon dioxide concentration of 5%. Take out the old medium and wash once with PBS, then add 2 mL of TrypLE™ Express solution and incubate at 37° C. for about 1 min. When the cell detaches from the bottom of the dish, add approximately 5 mL of complete medium pre-warmed at 37° C. Gently pipette the cell suspension with a pipette to detach the aggregated cells. […]
Each drug concentration is set for two administrations for at least 5 minutes. The tested compound and the compound-free external fluid acts on the cells sequentially from low to high concentration, and each cell uses the current detected in the compound-free exo-liquid as its own control group, and the detection of the two cells is repeated independently. […]

FGFR4, sequence (P22455 22-802): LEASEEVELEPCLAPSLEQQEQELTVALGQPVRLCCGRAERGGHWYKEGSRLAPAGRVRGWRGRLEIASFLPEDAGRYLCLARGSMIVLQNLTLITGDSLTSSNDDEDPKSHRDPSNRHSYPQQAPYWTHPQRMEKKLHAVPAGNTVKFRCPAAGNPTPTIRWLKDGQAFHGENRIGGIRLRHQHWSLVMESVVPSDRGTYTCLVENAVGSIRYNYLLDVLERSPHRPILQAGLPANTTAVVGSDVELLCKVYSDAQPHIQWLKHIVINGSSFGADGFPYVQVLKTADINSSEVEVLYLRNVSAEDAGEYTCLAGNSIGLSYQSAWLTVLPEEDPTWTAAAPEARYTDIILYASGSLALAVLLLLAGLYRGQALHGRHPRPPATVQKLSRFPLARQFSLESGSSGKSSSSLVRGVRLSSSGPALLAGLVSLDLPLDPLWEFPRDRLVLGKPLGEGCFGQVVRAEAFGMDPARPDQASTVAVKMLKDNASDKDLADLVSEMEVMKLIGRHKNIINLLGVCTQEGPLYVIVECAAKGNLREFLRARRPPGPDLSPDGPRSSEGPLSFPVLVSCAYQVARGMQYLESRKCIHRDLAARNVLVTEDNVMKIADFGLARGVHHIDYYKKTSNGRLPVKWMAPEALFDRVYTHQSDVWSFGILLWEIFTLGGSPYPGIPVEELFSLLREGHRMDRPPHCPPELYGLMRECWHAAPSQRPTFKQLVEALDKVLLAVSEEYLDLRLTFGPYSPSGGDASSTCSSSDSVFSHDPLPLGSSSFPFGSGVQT
FGFR2, sequence (P21802 22-821): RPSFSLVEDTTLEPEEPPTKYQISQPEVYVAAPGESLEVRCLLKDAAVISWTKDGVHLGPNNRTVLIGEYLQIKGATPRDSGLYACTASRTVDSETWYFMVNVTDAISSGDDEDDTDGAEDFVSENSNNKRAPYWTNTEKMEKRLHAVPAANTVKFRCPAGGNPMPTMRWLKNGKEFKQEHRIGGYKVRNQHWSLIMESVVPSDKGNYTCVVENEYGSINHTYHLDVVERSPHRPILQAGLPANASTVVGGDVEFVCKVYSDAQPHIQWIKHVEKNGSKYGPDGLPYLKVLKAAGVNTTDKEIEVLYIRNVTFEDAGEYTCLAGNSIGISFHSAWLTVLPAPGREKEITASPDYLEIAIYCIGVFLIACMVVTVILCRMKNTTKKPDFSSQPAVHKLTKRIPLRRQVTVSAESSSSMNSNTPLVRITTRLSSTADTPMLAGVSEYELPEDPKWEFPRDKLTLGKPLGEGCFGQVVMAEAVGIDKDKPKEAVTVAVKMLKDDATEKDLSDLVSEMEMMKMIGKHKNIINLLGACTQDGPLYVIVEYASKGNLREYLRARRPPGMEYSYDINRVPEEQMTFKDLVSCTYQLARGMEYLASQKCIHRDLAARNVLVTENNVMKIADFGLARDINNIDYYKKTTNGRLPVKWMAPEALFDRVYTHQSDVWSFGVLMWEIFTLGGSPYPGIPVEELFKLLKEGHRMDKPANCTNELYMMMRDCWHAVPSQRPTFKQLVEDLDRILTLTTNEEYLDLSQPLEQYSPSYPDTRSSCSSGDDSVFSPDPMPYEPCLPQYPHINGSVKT
FGFR3, sequence (P22607 23-806): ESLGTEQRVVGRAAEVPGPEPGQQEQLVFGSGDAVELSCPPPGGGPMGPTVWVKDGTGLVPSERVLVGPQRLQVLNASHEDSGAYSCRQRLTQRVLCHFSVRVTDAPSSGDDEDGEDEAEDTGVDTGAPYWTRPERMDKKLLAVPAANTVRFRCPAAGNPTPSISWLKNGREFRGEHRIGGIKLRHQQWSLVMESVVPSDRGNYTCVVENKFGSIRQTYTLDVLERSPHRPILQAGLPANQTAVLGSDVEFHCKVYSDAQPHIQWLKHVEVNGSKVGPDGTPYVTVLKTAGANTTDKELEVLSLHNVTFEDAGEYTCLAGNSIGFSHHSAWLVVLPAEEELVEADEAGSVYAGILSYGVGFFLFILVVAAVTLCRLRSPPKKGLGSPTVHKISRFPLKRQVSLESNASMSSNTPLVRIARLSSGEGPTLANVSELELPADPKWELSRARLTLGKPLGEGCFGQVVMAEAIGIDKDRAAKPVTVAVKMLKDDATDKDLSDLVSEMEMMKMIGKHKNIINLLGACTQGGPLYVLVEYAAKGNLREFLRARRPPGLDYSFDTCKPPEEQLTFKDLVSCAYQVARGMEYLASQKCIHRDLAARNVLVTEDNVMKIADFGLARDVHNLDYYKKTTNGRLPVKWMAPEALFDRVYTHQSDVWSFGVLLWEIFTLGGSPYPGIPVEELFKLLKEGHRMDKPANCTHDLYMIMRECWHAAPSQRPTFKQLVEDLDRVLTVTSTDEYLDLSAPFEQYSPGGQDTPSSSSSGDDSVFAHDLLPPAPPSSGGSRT
FGFR1, sequence (P11362 22-822): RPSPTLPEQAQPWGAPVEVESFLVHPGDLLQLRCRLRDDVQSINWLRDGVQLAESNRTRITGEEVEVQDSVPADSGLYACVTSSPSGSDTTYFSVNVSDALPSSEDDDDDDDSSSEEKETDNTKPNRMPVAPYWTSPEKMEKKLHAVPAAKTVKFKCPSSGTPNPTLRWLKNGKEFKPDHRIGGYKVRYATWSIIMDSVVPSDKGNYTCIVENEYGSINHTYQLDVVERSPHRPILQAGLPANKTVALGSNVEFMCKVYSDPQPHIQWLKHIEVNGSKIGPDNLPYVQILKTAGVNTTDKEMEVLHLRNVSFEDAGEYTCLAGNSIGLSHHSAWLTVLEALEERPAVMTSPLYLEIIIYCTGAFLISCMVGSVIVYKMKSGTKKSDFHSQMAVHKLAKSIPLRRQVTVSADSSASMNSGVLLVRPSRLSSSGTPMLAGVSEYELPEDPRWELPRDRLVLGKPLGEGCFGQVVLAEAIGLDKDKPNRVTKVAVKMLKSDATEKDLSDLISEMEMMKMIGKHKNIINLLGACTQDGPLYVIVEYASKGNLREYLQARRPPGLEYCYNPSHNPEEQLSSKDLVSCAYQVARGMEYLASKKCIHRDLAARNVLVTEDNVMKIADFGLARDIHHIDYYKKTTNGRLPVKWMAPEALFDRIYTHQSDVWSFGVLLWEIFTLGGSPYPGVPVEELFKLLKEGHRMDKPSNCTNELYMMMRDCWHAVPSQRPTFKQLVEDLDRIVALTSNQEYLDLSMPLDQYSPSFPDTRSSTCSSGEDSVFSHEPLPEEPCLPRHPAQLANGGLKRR
T1 sequence (Q12809 whole entry): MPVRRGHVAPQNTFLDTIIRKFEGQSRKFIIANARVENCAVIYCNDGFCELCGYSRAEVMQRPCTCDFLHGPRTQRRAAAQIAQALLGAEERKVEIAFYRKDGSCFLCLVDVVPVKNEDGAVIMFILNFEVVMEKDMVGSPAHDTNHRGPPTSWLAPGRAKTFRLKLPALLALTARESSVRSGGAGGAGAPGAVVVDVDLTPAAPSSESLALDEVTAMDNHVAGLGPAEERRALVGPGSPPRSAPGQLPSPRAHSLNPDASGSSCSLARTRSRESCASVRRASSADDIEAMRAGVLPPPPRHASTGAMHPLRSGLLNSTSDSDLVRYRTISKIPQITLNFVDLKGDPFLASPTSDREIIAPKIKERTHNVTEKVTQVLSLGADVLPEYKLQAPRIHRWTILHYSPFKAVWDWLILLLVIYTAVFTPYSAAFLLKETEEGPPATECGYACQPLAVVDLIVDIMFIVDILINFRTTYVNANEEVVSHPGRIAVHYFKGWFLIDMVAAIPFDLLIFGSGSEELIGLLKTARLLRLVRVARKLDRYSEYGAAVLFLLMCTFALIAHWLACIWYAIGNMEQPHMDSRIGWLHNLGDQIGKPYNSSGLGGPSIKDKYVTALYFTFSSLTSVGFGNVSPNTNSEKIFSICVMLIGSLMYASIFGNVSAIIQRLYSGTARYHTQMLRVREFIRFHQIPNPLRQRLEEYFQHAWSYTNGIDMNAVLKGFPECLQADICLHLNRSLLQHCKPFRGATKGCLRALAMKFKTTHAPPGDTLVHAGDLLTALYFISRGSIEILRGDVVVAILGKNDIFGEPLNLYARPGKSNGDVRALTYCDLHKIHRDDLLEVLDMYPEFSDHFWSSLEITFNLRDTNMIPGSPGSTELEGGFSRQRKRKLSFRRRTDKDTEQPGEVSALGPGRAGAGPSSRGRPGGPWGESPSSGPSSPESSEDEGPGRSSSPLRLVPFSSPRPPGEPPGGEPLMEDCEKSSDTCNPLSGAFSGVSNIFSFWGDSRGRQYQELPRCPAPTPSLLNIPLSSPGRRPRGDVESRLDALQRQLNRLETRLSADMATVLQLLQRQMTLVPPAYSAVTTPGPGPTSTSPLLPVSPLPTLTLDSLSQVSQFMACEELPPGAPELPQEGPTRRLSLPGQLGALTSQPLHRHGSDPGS

Molecule | IC50 [1] | IC50 ([2]; Homo sapiens, RT-4, 72 h) | IC50 ([3]; Homo sapiens) | IC50 [4] | IC50 [5] | IC50 [6] | IC50 [7] | inhibition effect on the hERG channel [8] | IC50 [2] | IC50 [3]
CCN1CCN(c2ccc(Nc3cc(N(C)C(=O)Nc4c(Cl)c(OC)cc(OC)c4Cl)ncn3)cc2)CC1 [BGJ398, infigratinib, reference compound] | 0.572 nM | 11.8 nM | 10 to 100 nM |  |  |  |  |  |  | 
C=CC(=O)N1CCC[C@H](n2cc(C#Cc3cc(OC)cc(OC)c3)c3c(N)n[nH]c(=O)c32)C1 [Compound 20, (S)-1-(1-acryloylpiperidin-3-yl)-4-amino-3-((3,5-dimethoxyphenyl)ethynyl)-1,6-dihydro-7H-pyrrolo[2,3-d]pyridazin-7-one] |  |  | < 10 nM | < 10 nM | < 10 nM | < 10 nM | < 10 nM |  |  | 
C=CC(=O)N1CC[C@H](n2cc(C#Cc3cc(OC)cc(OC)c3)c3c(N)n[nH]c(=O)c32)C1 [Compound 22, (S)-1-(1-acryloylpyrrolidin-3-yl)-4-amino-3-((3,5-dimethoxyphenyl)ethynyl)-1,6-dihydro-7H-pyrrolo[2,3-d]pyridazin-7-one] |  |  | < 10 nM | < 10 nM | < 10 nM | < 10 nM | < 10 nM |  |  | 
C=CC(=O)N1CCC[C@H](n2nc(C#Cc3cc(OC)cc(OC)c3)c3c(N)n[nH]c(=O)c32)C1 [Compound 24, (S)-1-(1-acryloylpiperidin-3-yl)-4-amino-3-((3,5-dimethoxyphenyl)ethynyl)-1,6-dihydro-7H-pyrazolo[3,4-d]pyridazin-7-one] |  |  | < 10 nM | < 10 nM | < 10 nM | < 10 nM | < 10 nM |  |  | 
C=CC(=O)N1CC[C@H](n2nc(C#Cc3cc(OC)cc(OC)c3)c3c(N)n[nH]c(=O)c32)C1 [Compound 26, (S)-1-(1-acryloylpyrrolidin-3-yl)-4-amino-3-((3,5-dimethoxyphenyl)ethynyl)-1,6-dihydro-7H-pyrazolo[3,4-d]pyridazin-7-one] |  |  | < 10 nM | < 10 nM | < 10 nM | < 10 nM | < 10 nM |  |  | 
C=CC(=O)N1CC[C@H](n2nc(C#Cc3c(F)c(OC)cc(OC)c3F)c3c(N)n[nH]c(=O)c32)C1 [Compound 28, (S)-1-(1-acryloylpyrrolidin-3-yl)-4-amino-3-((2,6-difluoro-3,5-dimethoxyphenyl)ethynyl)-1,6-dihydro-7H-pyrazolo[3,4-d]pyridazin-7-one] | 0.025 nM | 1.3 nM |  | < 10 nM | < 10 nM | < 10 nM | < 10 nM | weak or no inhibition effect |  | 
C=CC(=O)N1CC[C@H](n2nc(C#Cc3c(Cl)c(OC)cc(OC)c3Cl)c3c(N)n[nH]c(=O)c32)C1 [Compound 30, (S)-1-(1-acryloylpyrrolidin-3-yl)-4-amino-3-((2,6-dichloro-3,5-dimethoxyphenyl)ethynyl)-1,6-dihydro-7H-pyrazolo[3,4-d]pyridazin-7-one] |  |  | < 10 nM | < 10 nM | < 10 nM | < 10 nM | < 10 nM |  |  | 
C=CC(=O)N1CC[C@H](n2nc(-c3cc4cc(C)cc(OC)c4s3)c3c(N)n[nH]c(=O)c32)C1 [Compound 36, (S)-1-(1-acryloylpyrrolidin-3-yl)-4-amino-3-(7-methoxy-5-methylbenzo[b]thiophen-2-yl)-1,6-dihydro-7H-pyrazolo[3,4-d]pyridazin-7-one] |  |  | < 10 nM | < 10 nM | < 10 nM | < 10 nM | < 10 nM |  |  | 
C=CC(=O)N1CC[C@H](n2cc(-c3cc4cc(C)cc(OC)c4s3)c3c(N)n[nH]c(=O)c32)C1 [Compound 38, (S)-1-(1-acryloylpyrrolidin-3-yl)-4-amino-3-(7-methoxy-5-methylbenzo[b]thiophen-2-yl)-1,6-dihydro-7H-pyrrolo[2,3-d]pyridazin-7-one] | < 0.015 nM | 3.4 nM | < 10 nM | < 10 nM | < 10 nM | < 10 nM | < 10 nM | moderate inhibitory effect |  | 
COc1cc(OC)cc(N(CCNC(C)C)c2ccc3ncc(-c4cnn(C)c4)nc3c2)c1 [Erdafinib] |  |  |  |  |  |  |  |  | 1.8 nM | 
CCN1C(=O)N(c2c(F)c(OC)cc(OC)c2F)Cc2cnc3[nH]c(CN4CCOCC4)cc3c21 [Pemigatinib, reference compound] | 0.249 nM | 6 nM | 10 to 100 nM |  |  |  |  |  |  | 
(S)-4-amino-1-(1-(but-2-ynoyl)pyrrolidin-3-yl)-3-((2,6-difluoro-3,5-dimethoxyphenyl)ethynyl)-1,6-dihydro-7H-pyrazolo[3,4-d]pyridazin-7-one [Compound 34] |  |  |  |  |  |  |  |  |  | < 10 nM
